pIC50: −log10 of the molar value.
The molecules below were run against T1, human cGAS (residues 161-522) (Homo sapiens, UniProt Q8N884) (assay: Malachite Green assay to measure cGAS activity (coupled enzymatic assay, phosphate detection)). Settings: recombinant human cGAS 25 nM; 80 μM ATP, 80 μM GTP, 100 nM ISD; 4 hour at RT.
T1 construct: Recombinantly expressed purified human cGAS (residues 161-522) was used at 25 nM; made in house
Type: biochemical
Description: Malachite Green Assay to Measure cGAS Activity
Compounds were tested for cGAS inhibition in a coupled enzymatic assay based on Phosphate detection by Malachite Green. Final assay conditions were 20 mM TRIS pH 7.5 (Applichem), 5 mM MgCl2 (Sigma) and 0.01% BSA (Sigma) supplemented with 80 μM ATP (Sigma), 80 μM GTP (Sigma) and 100 nM Interferon Stimulating DNA (ISD) (Microsynth). Recombinantly expressed purified human cGAS (residues 161-522) was used at 25 nM.
All compounds were prepared as 10 mM stock solutions in DMSO and a 16 pt dilution series in DMSO with a dilution factor of 2.5 was prepared. 1 μL of DMSO dilution series was transferred to 32.3 μL reaction buffer, mixed by pipetting up/down, spun for 1 minute at 3000 rpm and was visually inspected for precipitation. 5 μL of 3-fold enzyme stock solution were transferred to an empty 384-well Black/Clear Flat Bottom Polystyrene NBS (Corning) rows 3-24. Rows 1-2 were filled with assay buffer. Plates were spun 10 seconds at 1000 rpm (164×g). 5 μL of compound intermediate dilution was added and mixed by pipetting up/down to rows 3-24. Rows 1-2 were filled with 3.1% DMSO assay buffer. Plates were spun 10 seconds at 1000 rpm (164×g). 5 μL 3-fold Nucleotide/DNA mix was added to all wells to start the reaction. Plates were spun 10 seconds at 1000 rpm (164×g) and incubated for 4 hour at room temperature (RT) in the dark. 5 μL 4 U/mL PPase (Sigma) were added to all wells. Plates spun 10 seconds at 1000 rpm (164×g). 10 μL BioMol green Solution (Enzo Life Sciences) was added to all wells. Plates spun 10 seconds at 1000 rpm (164×g) and incubated 30 minutes at RT in the dark. Absorbance data was collected 620 nm on an EnVision Multilable Reader (Perkin Elmer) and the following measurement settings were used: excitation filter photometric was 620 nm; excitation from the top; measurement height was 1 mm; number of flashes was 30; number of flashes integrated was 1.
All plates are checked for abnormalities and outliers in the Blank Control (no protein, row 1) and the Neutral Control (no compound, row 2) are excluded using the 3*SD rule. Data was normalized to 0 and 100% by Blank and Neutral Control and each curve was fitted and judged using the 4 parameter logistic equation to determine the IC50 for cGAS inhibition.
Table 1 provides IC50 values (04) for cGAS inhibition obtained for particular examples of the present invention as measured by the above-described assay.

T1 sequence (Q8N884 161-522): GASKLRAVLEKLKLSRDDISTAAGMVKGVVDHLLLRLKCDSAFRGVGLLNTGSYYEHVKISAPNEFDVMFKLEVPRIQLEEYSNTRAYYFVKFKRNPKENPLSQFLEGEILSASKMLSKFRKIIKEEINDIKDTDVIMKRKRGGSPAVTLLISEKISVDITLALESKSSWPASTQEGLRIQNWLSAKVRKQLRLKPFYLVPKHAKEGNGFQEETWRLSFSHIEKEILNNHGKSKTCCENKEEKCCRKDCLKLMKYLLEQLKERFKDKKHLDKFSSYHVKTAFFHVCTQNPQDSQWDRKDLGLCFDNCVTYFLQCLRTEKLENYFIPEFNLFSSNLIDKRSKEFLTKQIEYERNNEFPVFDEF

Row | pIC50 | Compound
1 | 5.02 | Cc1ccc(-c2ccc3c(c2)C(=O)NS(=O)(=O)N3CCN2CCOCC2)c(Cl)c1 [Example 2, 6-(2-Chloro-4-methylphenyl)-1-(2-morpholinoethyl)-1H-benzo[c][1,2,6]thiadiazin-4(3H)-one 2,2-dioxide]
2 | 4.75 | Cc1ccc(-c2ccc3c(c2)C(=O)N(CCN2CCOCC2)S(=O)(=O)N3)c(Cl)c1 [Example 5, 6-(2-Chloro-4-methylphenyl)-3-(2-morpholinoethyl)-1H-benzo[c][1,2,6]thiadiazin-4(3H)-one 2,2-dioxide]
3 | 4.76 | Cc1ccc(-c2ccc3c(c2)C(=O)NS(=O)(=O)N3CCc2ccccc2)c(Cl)c1 [Example 4, 6-(2-Chloro-4-methylphenyl)-1-phenethyl-1H-benzo[c][1,2,6]thiadiazin-4(3H)-one 2,2-dioxide]
4 | 4.85 | Cc1ccc(-c2ccc3c(c2)C(=O)NS(=O)(=O)N3Cc2ccncc2)c(Cl)c1 [Example 3, 6-(2-Chloro-4-methylphenyl)-1-(pyridin-4-ylmethyl)-1H-benzo[c][1,2,6]thiadiazin-4(3H)-one 2,2-dioxide]
5 | 4.70 | Cc1ccc(-c2ccc3c(c2)C(=O)NS(=O)(=O)N3Cc2ccccc2)c(Cl)c1 [Example 6, 1-Benzyl-6-(2-chloro-4-methylphenyl)-1H-benzo[c][1,2,6]thiadiazin-4(3H)-one 2,2-dioxide]
6 | 5.53 | Cc1ccc(-c2ccc3c(c2)C(=O)NS(=O)(=O)N3)c(Cl)c1 [Example 1, 6-(2-Chloro-4-methylphenyl)-1H-benzo[c][1,2,6]thiadiazin-4(3H)-one 2,2-dioxide]

Reference: US20230219913A1, “Sulfamoylamide Derivatives” (Hoffmann-La Roche Inc., priority 2020, published 2023)
